In patent US20060073099A1, “Treatment screening methods” (priority 2004, published 2006):

System: Macaca mulatta (Rhesus monkey) exposed to a 6 Gy dose of γ-radiation (LD50/30)
Description: Treatment of whole body lethal radiation and characterization of mortality surrogate markers. Two groups of 10 Macaca mulatta (Rhesus monkey) were exposed to a 6 Gy dose of γ-radiation from a ^60Co source. This dose is an LD50/30 dose for this species. […] The animals in each group were treated once per day for 5 consecutive days beginning on the day the animals were exposed to radiation. The animals consisted of 12 males and 8 females with a body weight range of about 2.5-5.5 kg at the onset of treatment. The age range was 1.75-5.0 years at the onset of treatment.
Twelve male and eight female rhesus monkeys were assigned to the study. Each group comprised of seven male and three female animals. During the acclimation period, animals were assigned to their respective dose groups by randomization based on the absolute neutrophil count. The average of 3 pretreatment absolute neutrophil counts were used for each animal.
The test article (100 mg/mL AED) and vehicle or control article in aliquots of 10 mL. Test article was an aqueous suspension in vehicle. The vehicle article consists of a solution of sodium shloride (0.9% w/v), carboxymethylcellulose (0.5% w/v), polysorbate 80 (2% v/v), benzalkonium chloride (0.02% v/v) and sodium phosphate (10 mM, pH 6.5). Immediately prior to drawing into a syringe, the test article formulation was briefly vortexed to uniformly distribute sedimented test article. Once drawn into a syringe, the test article was administered within 10 minutes. Just prior to injection, the syringe containing the test article was rotated end-over-end to uniformly disperse the compound.
Whole body radiation. The animals were exposed to ionizing as follows. Dosimetry measurements using phantoms, the dose rate and duration of irradiation and the actual time of irradiation for each individual animal was recorded. Animals were fasted overnight prior to whole-body irradiation and fed upon return to the housing facility.
The animals received a midline treatment dose of 600 cGy. The dose rate of the ^60Co gamma source was about 60 cGy per minute and the actual rate was recorded for each animal. To obtain a homogenous dose distribution, the radiation treatment was divided in two parts. First, the animal received half of the dose by anteroposterior irradiation. The second half of the dose was delivered by posteroanterior irradiation. […] The radiation dose was calibrated using an acrylic phantom placed in the same experimental set up that was used for animal irradiation.

With `C[C@]12CC[C@H]3[C@@H](CC=C4C[C@@H](O)CC[C@@]43C)[C@@H]1CC[C@@H]2O` [3β,17β-dihydroxyandrost-5-ene] the animals survived (600 cGy 60Co whole body γ-irradiation, 15 mg/kg i.m. once per day for 5 consecutive days, first injection 2-3 hours after irradiation, 10 animals, observed to day 40-41) was 9 of 10, the “days of severe thrombocytopenia (less than 20,000 platelets/μL) experienced collectively by the group” value (600 cGy whole body irradiation, 15 mg/kg i.m. daily x5, 10 animals, p=0.009 by exact test of homogeneity vs vehicle (51 days)) was 32 days and the “median days of febrile severe neutropenia” value (600 cGy whole body irradiation, 15 mg/kg i.m. daily x5, 95% CI 0,2, p=0.037 by exact log rank test vs vehicle (median 5 days)) was 0 days. For the same molecule, the Mortality (600 cGy whole body irradiation, 15 mg/kg i.m. daily x5, Fisher's exact test mid p=0.073 vs two combined control groups (45% mortality)) was 10% and the “survivors having febrile severe neutropenia (core body temperature >40.4° C. and absolute neutrophil count less than 500 cells/μL) at some time during the protocol” value (600 cGy whole body irradiation, 15 mg/kg i.m. daily x5, the one non-survivor did not have the condition) was 2 animals.
